# Measured values reported in patent publication US20080058318A1 (priority 2006, published 2008).
# “And” between values parts separate entries of the source, which are not always exact repeats. Equal entries are not always repeated. Structures can show the parent of a compound that is named as a salt.
# Assays:
# [1] = system: patients who met the 1990 ACR criteria for fibromyalgia syndrome; experiment: Example 1 study: composite responder analysis for pain of fibromyalgia (pain reduction plus PGIC); format: in vivo, human; conditions: for Responders for the treatment of the pain of fibromyalgia, % = m/n: observed cases (OC), hydrochloride; for Responders for the treatment of the pain of fibromyalgia, m (number of responders): observed cases
# Method: (§1) This was a multi-center, randomized, double-blinded, placebo-controlled three-arm study, which enrolled 888 patients who met the 1990 ACR criteria for fibromyalgia syndrome as well as the more detailed admission criteria outlined in the protocol.
# (§2) All randomized medications (placebo and milnacipran) were administered in a split-dose (BID) fashion. The doses were administered in a dose escalation regimen as outlined below:
# The primary endpoint of this study was a composite responder analysis implementing analysis of three domains of interest, evaluated at […]. The domains measured were:
# 1) pain (measured by an electronic diary as a daily recall pain score, calculated to weekly average scores)
# 2) patient global (measured by the PGIC, 1-7 scale)
# For the primary analysis, the pain domain score was determined by a calculation that compared the average of treatment weeks 14 and 15 to the two baseline weeks, and treatment weeks 26 and 27 vs. baseline for the secondary analysis. The last observation was carried forward if neither the week 14 nor week 15 (or week 26/27) patient self-reported pain score is available to compare to the baseline value.
# A responder was defined as a subject who experienced a greater than 30% reduction in pain from baseline and improvement on the PGIC.
# See Table 1 for a summary of the results in the Intent-to-Treat Population and Table 2 for a summary of the Last Observation Carried Forward (LOCF), Baseline Observation Carried Forward (BOCF) and study completer (OC) populations. LOCF is an analysis in which observations are carried forward to the last time point for patients who dropped out. The LOCF analysis treats the carried-forward data as observed data at the last time point. BOCF is an analysis that requires that the patient remain active in the trial to be evaluated for response. If a patient withdraws from the trial for any reason they are classed as a non-responder irregardless of their pain and global scores at the time of withdrawal.
# [2] = system: patients who met the 1990 ACR criteria for fibromyalgia syndrome; experiment: Example 1 study: MASQ total score (cognitive function), change from baseline; format: in vivo, human; set-up: MASQ Total Score - Change from Baseline: scale not given here
# Method: as §1, §2
# d. FMS Status Assessments: Patient pain 24 hour and 7 day recall VAS, the SF-36, Multiple Ability Self-report Questionnaire (MAS Q, cognitive function), the Multidimensional Health Assessment Questionnaire (MDHAQ) and the Multidimensional Fatigue Inventory (MFI). Diary assessments include current pain (morning, random daily, and evening reports); daily recall pain (morning report); medications taken (evening report); overall pain past week (weekly report), overall fatigue in the last week (weekly report), and the extent that pain kept the patient from caring for themselves (weekly report).
# The MASQ is a brief self-report questionnaire, which includes 5 cognitive domains: language ability, visuo-perceptual ability, verbal memory, visual memory, and attention/concentration (Seidenberg et al., J Clin & Exp Neuropsychology 1994; 16:93-104). The MASQ has been validated in both normal subjects and patient groups having cognitive difficulties in the assessment domains.
# [3] = system: patients who meet the 1990 ACR criteria for fibromyalgia syndrome; experiment: Example 2 study: MASQ total score, 3-month treatment period; format: in vivo, human; set-up: MASQ total score, Actual, Mean / MASQ total score, Change from baseline, Mean / MASQ total score, Actual, Median / MASQ total score, Change from baseline, Median: scale not given here; conditions: for MASQ total score change, Difference from Placebo / MASQ total score, Change from baseline, LS Mean (SE): 3-month (LOCF), ITT, ANCOVA model; for MASQ total score, Actual, Mean / MASQ total score, Actual, Median / MASQ total score, Change from baseline, Mean / MASQ total score, Change from baseline, Median: 3-month treatment period (LOCF), intent-to-treat
# Method: This was a multicenter, randomized, double-blind, placebo-controlled three-arm study designed which enrolled 1196 patients who meet the 1990 ACR criteria for fibromyalgia syndrome (history of widespread pain and pain in 11 of 18 tender point sites on digital palpation), as well as the more detailed admission criteria outlined in the protocol.
# All randomized medications (placebo and milnacipran) were administered twice a day (BID).
# (iii) Additional Efficacy Measurements: The Fibromyalgia Impact Questionnaire (FIQ) total score and physical function, Beck Depression Inventory (BDI), the MOS-Sleep Index Scale, the Arizona Sexual Experiences Scale (ASEX), Patient pain 24 hour and 7 day recall VAS, the SF-36 individual domains, Patient Global Disease Status, Patient Global Therapeutic Benefit, the Multiple Ability Self-report Questionnaire (MASQ, cognitive function), the Multidimensional Health Assessment Questionnaire (MDHAQ), Multidimensional Fatigue Inventory (MFI), and diary assessments including current pain (morning, random daily, and evening reports); overall pain past week (weekly report), overall fatigue in the last week (weekly report), and the extent that pain kept the patient from caring for themselves (weekly report).
# fibromyalgia patients = conditions: cited from earlier work
smiles,measurement,setting,value
"CCN(CC)C(=O)C1(c2ccccc2)CC1CN (racemic) [milnacipran, Z-2-aminomethyl-1-phenyl-N,N-diethylcyclopropanecarboxamide hydrochloride]","Responders for the treatment of the pain of fibromyalgia, % = m/n","[1]; 100 mg/day BID, treatment weeks 14-15 (3 month)",53.33% and 53.3%
same,"Responders for the treatment of the pain of fibromyalgia, % = m/n","[1]; 100 mg/day BID, treatment weeks 14-15 (3 month), listed as Milnacipran",53.33%
same,"Responders for the treatment of the pain of fibromyalgia, % = m/n","[1]; 100 mg/day BID, treatment weeks 26-27 (6 month)",49.59% and 49.6%
same,"Responders for the treatment of the pain of fibromyalgia, % = m/n","[1]; 100 mg/day BID, treatment weeks 26-27 (6 month), listed as Milnacipran",49.59%
same,"Long-term treatment of fibromyalgia and some of its symptoms, low dose compared with high dose","[1]; 100 mg/day vs 200 mg/day, continued administration",almost as effective as continued administration of high-dose milnacipran
same,"Responders for the treatment of the pain of fibromyalgia, m (number of responders)","[1]; 100 mg/day, treatment weeks 14-15, n = 135",72
same,"Responders for the treatment of the pain of fibromyalgia, m (number of responders)","[1]; 100 mg/day, treatment weeks 26-27, n = 121",60
same,"Individual component responder rate, PGIC (LOCF)","[1]; 100 mg, 3 month",54.0%
same,"Individual component responder rate, Pain (LOCF)","[1]; 100 mg, 3 month",35.7%
same,"Pain composite responder rate, Sensitivity Analysis I (BOCF)","[1]; 100 mg, 3 month",32.1%
same,"Pain composite responder rate, Sensitivity Analysis II","[1]; 100 mg, 3 month",32.%
same,"Pain composite responder rate, Sensitivity Analysis III","[1]; 100 mg, 3 month",32.1%
same,"Pain composite responder rate, Primary Analysis (LOCF)","[1]; 100 mg, 3 month, N = 224",33.5%
same,"Individual component responder rate, PGIC (LOCF)","[1]; 100 mg, 6 month",49.6%
same,"Individual component responder rate, Pain (LOCF)","[1]; 100 mg, 6 month",35.7%
same,"Pain composite responder rate, Sensitivity Analysis I (BOCF)","[1]; 100 mg, 6 month",26.8%
same,"Pain composite responder rate, Sensitivity Analysis II","[1]; 100 mg, 6 month",27.2%
same,"Pain composite responder rate, Sensitivity Analysis III","[1]; 100 mg, 6 month",29.5%
same,"Pain composite responder rate, Primary Analysis (LOCF)","[1]; 100 mg, 6 month, N = 224",30.8%
same,"Responders for the treatment of the pain of fibromyalgia, % = m/n","[1]; 200 mg/day BID, treatment weeks 14-15 (3 month)",55.0%
same,"Responders for the treatment of the pain of fibromyalgia, % = m/n","[1]; 200 mg/day BID, treatment weeks 14-15 (3 month), listed as Milnacipran",55.00%
same,"Responders for the treatment of the pain of fibromyalgia, % = m/n","[1]; 200 mg/day BID, treatment weeks 26-27 (6 month)",51.74% and 51.7%
same,"Responders for the treatment of the pain of fibromyalgia, % = m/n","[1]; 200 mg/day BID, treatment weeks 26-27 (6 month), listed as Milnacipran",51.74%
same,"Responders for the treatment of the pain of fibromyalgia, m (number of responders)","[1]; 200 mg/day, treatment weeks 14-15, n = 260",143
same,"Responders for the treatment of the pain of fibromyalgia, m (number of responders)","[1]; 200 mg/day, treatment weeks 26-27, n = 230",119
same,"Individual component responder rate, PGIC (LOCF)","[1]; 200 mg, 3 month",50.6%
same,"Individual component responder rate, Pain (LOCF)","[1]; 200 mg, 3 month",38.3%
same,"Pain composite responder rate, Sensitivity Analysis I (BOCF)","[1]; 200 mg, 3 month",32.4%
same,"Pain composite responder rate, Sensitivity Analysis II","[1]; 200 mg, 3 month",32.7%
same,"Pain composite responder rate, Sensitivity Analysis III","[1]; 200 mg, 3 month",32.4%
same,"Pain composite responder rate, Primary Analysis (LOCF)","[1]; 200 mg, 3 month, N = 441",34.9%
same,"Individual component responder rate, PGIC (LOCF)","[1]; 200 mg, 6 month",49.9%
same,"Individual component responder rate, Pain (LOCF)","[1]; 200 mg, 6 month",35.4%
same,"Pain composite responder rate, Sensitivity Analysis I (BOCF)","[1]; 200 mg, 6 month",27.0%
same,"Pain composite responder rate, Sensitivity Analysis II","[1]; 200 mg, 6 month",28.6%
same,"Pain composite responder rate, Sensitivity Analysis III","[1]; 200 mg, 6 month",29.9%
same,"Pain composite responder rate, Primary Analysis (LOCF)","[1]; 200 mg, 6 month, N = 441",32.2%
same,"Treatment of cognitive dysfunction associated with FMS (change in MASQ total score), comparison with placebo",[2]; 100 mg/day vs placebo,superior to placebo
same,MASQ Total Score - Change from Baseline,"[2]; 100 mg, treatment week 3",−0.39
same,MASQ Total Score - Change from Baseline,"[2]; 100 mg, treatment week 7",−0.34
same,MASQ Total Score - Change from Baseline,"[2]; 100 mg, treatment week 11",−1.33
same,MASQ Total Score - Change from Baseline,"[2]; 100 mg, treatment week 15",−1.18
same,MASQ Total Score - Change from Baseline,"[2]; 100 mg, treatment week 19",−1.60
same,MASQ Total Score - Change from Baseline,"[2]; 100 mg, treatment week 23",−0.89
same,MASQ Total Score - Change from Baseline,"[2]; 100 mg, treatment week 27",−1.07
same,"Treatment of cognitive dysfunction associated with FMS (change in MASQ total score), 200 mg/day compared with 100 mg/day",[2]; 200 mg/day vs 100 mg/day,superior to milnacipran 100 mg/day
same,"Treatment of cognitive dysfunction associated with FMS (change in MASQ total score), comparison with placebo",[2]; 200 mg/day vs placebo,superior to placebo
same,MASQ Total Score - Change from Baseline,"[2]; 200 mg, treatment week 3",−1.60
same,MASQ Total Score - Change from Baseline,"[2]; 200 mg, treatment week 7",−1.77
same,MASQ Total Score - Change from Baseline,"[2]; 200 mg, treatment week 11",−1.73
same,MASQ Total Score - Change from Baseline,"[2]; 200 mg, treatment week 15",−1.76
same,MASQ Total Score - Change from Baseline,"[2]; 200 mg, treatment week 19",−1.63
same,MASQ Total Score - Change from Baseline,"[2]; 200 mg, treatment week 23",−1.52
same,MASQ Total Score - Change from Baseline,"[2]; 200 mg, treatment week 27",−1.89
same,"MASQ total score change, Difference from Placebo",[3]; 100 mg,−1.13
same,"MASQ total score, Change from baseline, LS Mean (SE)",[3]; 100 mg,−3.93 (0.786)
same,"MASQ total score, Actual, Mean",[3]; 100 mg,88.86
same,"MASQ total score, Actual, Median",[3]; 100 mg,89.0
same,"MASQ total score, Change from baseline, Mean",[3]; 100 mg,−3.34
same,"MASQ total score, Change from baseline, Median",[3]; 100 mg,−3.0
same,"MASQ total score change, Difference from Placebo",[3]; 200 mg,−1.12
same,"MASQ total score, Change from baseline, LS Mean (SE)",[3]; 200 mg,−4.51 (0.797)
same,"MASQ total score, Actual, Mean",[3]; 200 mg,89.63
same,"MASQ total score, Actual, Median",[3]; 200 mg,90.5
same,"MASQ total score, Change from baseline, Mean",[3]; 200 mg,−3.75
same,"MASQ total score, Change from baseline, Median",[3]; 200 mg,−3.0
same,Acute (short-term) therapy for the symptom of pain in FMS,fibromyalgia patients; 100 mg BID,effective acute (short-term) therapy
same,"Effect on fatigue, mood, global wellness, and function, BID compared with QD dosing","fibromyalgia patients; BID vs QD, up to 200 mg/day",approximately equally effective
same,"Treating pain, twice-daily dosing compared with QD dosing","fibromyalgia patients; BID vs QD, up to 200 mg/day",more effective in treating pain than QD dosing
same,PGIC: completers who reported an improvement in their overall status,"fibromyalgia patients; both milnacipran treatment groups (BID and QD), up to 200 mg/day",over 70%
same,PGIC: completers who reported worsening,"fibromyalgia patients; milnacipran treatment groups, up to 200 mg/day",10%
